For the assay, the target named is JAK3 enzyme (Homo sapiens (Human), UniProt P52333). Briefly: JAK Caliper Enzyme Assay at 4 μM or 1 mM ATP. Type of assay: biochemical.
The mark [1] stands for this setting: read-out: JAK3 (4 μM ATP) IC50, 4 μM ATP.
Where [2] appears, read: read-out: JAK3 (1 mM ATP) IC50, 1 mM ATP.

Read-outs that look alike come from different tables or passages of the source. Some results are limits rather than exact numbers.

Sequence of JAK3 enzyme (P52333 whole entry, species assumed): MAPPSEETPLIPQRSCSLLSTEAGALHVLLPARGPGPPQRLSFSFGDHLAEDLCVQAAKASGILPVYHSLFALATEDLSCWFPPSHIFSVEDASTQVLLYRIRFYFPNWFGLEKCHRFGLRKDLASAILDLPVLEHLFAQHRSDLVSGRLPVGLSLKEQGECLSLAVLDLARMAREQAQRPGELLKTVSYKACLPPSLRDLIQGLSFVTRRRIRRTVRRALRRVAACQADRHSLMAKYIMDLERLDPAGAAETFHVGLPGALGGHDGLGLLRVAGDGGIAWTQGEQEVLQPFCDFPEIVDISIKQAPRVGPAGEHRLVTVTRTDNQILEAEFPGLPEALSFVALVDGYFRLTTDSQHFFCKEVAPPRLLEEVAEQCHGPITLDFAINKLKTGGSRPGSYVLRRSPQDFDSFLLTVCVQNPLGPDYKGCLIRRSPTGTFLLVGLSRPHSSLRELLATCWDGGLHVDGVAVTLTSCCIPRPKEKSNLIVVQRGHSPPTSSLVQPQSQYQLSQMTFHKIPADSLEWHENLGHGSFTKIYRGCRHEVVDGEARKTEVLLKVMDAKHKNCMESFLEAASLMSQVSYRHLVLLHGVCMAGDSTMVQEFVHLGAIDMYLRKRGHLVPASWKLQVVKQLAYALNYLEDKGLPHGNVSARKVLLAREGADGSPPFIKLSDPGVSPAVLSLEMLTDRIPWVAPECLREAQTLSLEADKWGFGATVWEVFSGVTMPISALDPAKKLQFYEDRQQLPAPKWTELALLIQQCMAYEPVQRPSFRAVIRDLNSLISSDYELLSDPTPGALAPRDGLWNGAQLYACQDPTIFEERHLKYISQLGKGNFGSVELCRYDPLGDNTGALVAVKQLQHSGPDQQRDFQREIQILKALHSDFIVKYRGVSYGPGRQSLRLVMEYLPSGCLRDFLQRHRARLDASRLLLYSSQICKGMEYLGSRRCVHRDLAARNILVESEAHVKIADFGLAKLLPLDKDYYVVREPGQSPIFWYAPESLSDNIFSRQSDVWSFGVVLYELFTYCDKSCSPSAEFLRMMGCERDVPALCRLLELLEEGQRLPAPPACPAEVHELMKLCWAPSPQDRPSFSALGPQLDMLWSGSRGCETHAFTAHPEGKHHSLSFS

Broadly, the IC50 is the concentration at which inhibition is half-maximal. In the case of `C=CC(=O)N1C[C@H](Nc2ccnc3[nH]cc(C#N)c23)CC[C@@H]1C` [Example 165, 4-{[(3R,6S)-1-Acryloyl-6-methylpiperidin-3-yl]amino}-1H-pyrrolo[2,3-b]pyridine-3-carbonitrile], the IC50 runs as follows: under setting [1], 0.5 nM; under setting [2], 22.7 nM.

On to `C=CC(=O)N1Cc2ncn(C)c2C(Nc2ncnc3[nH]ccc23)C1` (stereo not drawn) [Example 166, 1-[1-Methyl-7-(7H-pyrrolo[2,3-d]pyrimidin-4-ylamino)-1,4,6,7-tetrahydro-5H-imidazo[4,5-c]pyridin-5-yl]prop-2-en-1-one], for which the IC50 under setting [1] came to 370 nM and the IC50 under setting [2] is greater than 10000 nM.

`C=CC(=O)NC1CCN(c2cnc3[nH]ccc3n2)C1` (stereo not drawn) [Example 167, N-[1-(5H-pyrrolo[2,3-b]pyrazin-2-yl)pyrrolidin-3-yl]prop-2-enamide]: the IC50 under setting [1] worked out at 2410 nM.

For the compound `C=CC(=O)N(C)C1CCN(c2cnc3[nH]cc(C(=O)NC(C)C)c3n2)CC1` [Example 169, 2-{4-[acryloyl(methyl)amino]piperidin-1-yl}-N-(propan-2-yl)-5H-pyrrolo[2,3-b]pyrazine-7-carboxamide], the IC50 is, setting by setting: under setting [1], 42.8 nM; under setting [2], 4730 nM.

For `C=CC(=O)N1CC[C@@H]2CN(c3cnc4[nH]cc(C(=O)NC(C)C)c4n3)C[C@@H]21` [Example 170, 2-[(3aR,6aR)-1-acryloylhexahydropyrrolo[3,4-b]pyrrol-5(1H)-yl]-N-(propan-2-yl)-5H-pyrrolo[2,3-b]pyrazine-7-carboxamide], the IC50 is, setting by setting: under setting [1], 3.3 nM; under setting [2], 392 nM.

Take `C=CC(=O)N1CC[C@H](Nc2cnc3[nH]cc(C(=O)NC(C)C)c3n2)C1` [Example 171, 2-{[(3S)-1-acryloylpyrrolidin-3-yl]amino}-N-(propan-2-yl)-5H-pyrrolo[2,3-b]pyrazine-7-carboxamide]: the IC50 stood at 0.4 nM under setting [1] and 32.7 nM under setting [2].

For the compound `C=CC(=O)NC1CN(c2cnc3[nH]cc(C(=O)NC(C)C)c3n2)C1` [Example 173, 2-[3-(acryloylamino)azetidin-1-yl]-N-(propan-2-yl)-5H-pyrrolo[2,3-b]pyrazine-7-carboxamide], the IC50 under setting [1] stood at 8.1 nM and the IC50 under setting [2] was 692 nM.

Regarding `C=CC(=O)N1CCN(c2cnc3[nH]cc(C(=O)NC(C)C)c3n2)CC1` [Example 174, 2-(4-acryloylpiperazin-1-yl)-N-(propan-2-yl)-5H-pyrrolo[2,3-b]pyrazine-7-carboxamide], the IC50 under setting [1] was found to be 0.4 nM and the IC50 under setting [2] came out at 34.8 nM.

On to `C=CC(=O)N1CC2(C1)CN(c1cnc3[nH]ccc3n1)C2` [Example 175, 1-[6-(5H-pyrrolo[2,3-b]pyrazin-2-yl)-2,6-diazaspiro[3.3]hept-2-yl]prop-2-en-1-one], for which, under setting [1], the IC50 amounted to 1610 nM.

As to `C=CC(=O)N1CCC(Nc2cnc3[nH]ccc3n2)CC1` [Example 176, 1-[4-(5H-pyrrolo[2,3-b]pyrazin-2-ylamino)piperidin-1-yl]prop-2-en-1-one], the IC50 under setting [1] was 7.2 nM and the IC50 under setting [2] amounted to 910 nM.

On to `C=CC(=O)N[C@H]1CC[C@@H](Nc2cnc3[nH]cc(C(=O)NC(C)C)c3n2)CC1` [Example 182, 2-{[cis-4-(acryloylamino)cyclohexyl]amino}-N-(propan-2-yl)-5H-pyrrolo[2,3-b]pyrazine-7-carboxamide], for which the IC50 was 11.4 nM under setting [1] and 975 nM under setting [2].

Turning to `C=CC(=O)NC[C@@]12C[C@@H]1CN(c1cnc3[nH]cc(C(=O)NC(C)C)c3n1)C2` [Example 183, 2-{(1R,5S)-1-[(acryloylamino)methyl]-3-azabicyclo[3.1.0]hex-3-yl}-N-(propan-2-yl)-5H-pyrrolo[2,3-b]pyrazine-7-carboxamide], the IC50 reads like this: under setting [1], 9.6 nM; under setting [2], 794 nM.

On to `C=CC(=O)N1CCCN(c2cnc3[nH]cc(C(=O)NC(C)C)c3n2)CC1` [Example 185, 2-(4-acryloyl-1,4-diazepan-1-yl)-N-(propan-2-yl)-5H-pyrrolo[2,3-b]pyrazine-7-carboxamide], for which the IC50 runs as follows: under setting [1], 20.4 nM; under setting [2], 1460 nM.

The values are drawn from patent US20250134869A1, “Pyrrolo[2,3-d]pyrimidinyl, Pyrrolo[2,3-b]pyrazinyl and Pyrrolo[2,3-d]pyridinyl Acryla-mides” (Pfizer Inc, priority 2021, published 2025).
